Values joined by “and” are separate entries in the source; they are usually repeats but may differ in a detail not shown here. Identical values can stand only once.
Key:
smartweed = test: Test F postemergence; format: in vivo, Polygonum persicaria; conditions: scale 0 to 100
From the text: (§1) Seeds of plant species selected from corn (Zea mays), soybean (Glycine max), velvetleaf (Abutilon theophrasti), lambsquarters (Chenopodium album), wild poinsettia (Euphorbia heterophylla), pigweed, palmer (palmer pigweed, Amaranthus palmeri), common waterhemp (Amaranthus rudis), surinam grass (Brachiaria decumbens), large crabgrass (Digitaria sanguinalis), crabgrass, Brazil (Brazilian crabgrass, Digitaria horizontalis), fall panicum (Panicum dichotomiflorum), giant foxtail (Setaria faberii), green foxtail (Setaria viridis), goosegrass (Eleusine indica), johnsongrass (Sorghum halepense), common ragweed (Ambrosia elation), barnyardgrass (Echinochloa crus-galli), southern sandbur (Cenchrus echinatus), arrowleaf sida (Sida rhombifolia), Italian ryegrass (Lolium multiflorum), dayflower, VA (Virginia (VA) dayflower, Commelina virginica), field bindweed (Convolvulus arvensis), cocklebur (common cocklebur, Xanthium strumarium), morningglory (Ipomoea coccinea), nightshade (eastern black nightshade, Solanum ptycanthum), kochia (Kochia scoparia), yellow nutsedge (Cyperus esculentus), and hairy beggarticks (Bidens pilosa), were planted into a silt loam soil and treated preemergence with test chemicals formulated in a non-phytotoxic solvent mixture which included a surfactant.
(§2) At the same time, plants from these crop and weed species and also horseweed (Canada horseweed, Conyza canadensis), smartweed (ladysthumb smartweed, Polygonum persicaria), waterhemp_RES1, (ALS & Triazine resistant common waterhemp, Amaranthus rudis), and waterhemp_RES2, (ALS & HPPD resistant common waterhemp, Amaranthus rudis) were treated with postemergence applications of test chemicals formulated in the same manner. Plants ranged in height from 2 to 18 cm for postemergence treatments (1- to 4-leaf stage). Treated plants and controls were maintained in a greenhouse for 14 to 21 days, after which time all species were compared to controls and visually evaluated. Plant response ratings, summarized in Table F, are based on a scale of 0 to 100 where 0 is no effect and 100 is complete control. A dash (-) response means no test result.

arrowleaf sida = test: Test F postemergence; format: in vivo, Sida rhombifolia; conditions: scale 0 to 100
From the text: as §1, §2

barnyardgrass = test: Test F postemergence; format: in vivo, Echinochloa crus-galli; conditions: scale 0 to 100
From the text: as §1, §2

wild poinsettia = test: Test F postemergence; format: in vivo, Euphorbia heterophylla; conditions: scale 0 to 100
From the text: as §1, §2

[1] = test system: waterhemp_RES1 (ALS & Triazine resistant common waterhemp); test: Test F postemergence; format: in vivo, Amaranthus rudis; conditions: scale 0 to 100
Outline: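 Greenhouse study; evaluation window 14–21 days post-treatment. Seedlings sprayed postemergence measured 2–18 cm, while preemergence treatments went on silt loam soil. Non-phytotoxic solvent mixture with surfactant served as vehicle; response assessed by eye, 0–100 scale.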

cocklebur = test: Test F preemergence; format: in vivo, Xanthium strumarium; conditions: scale 0 to 100
From the text: as §1, with “surfactant. […]” for “surfactant.”

Russian thistle = test: Test C preemergence; format: in vivo, Salsola kali; conditions: for Plant response rating (scale of 0 to 100), Russian Thistle: Preemergence, 250 g ai/ha; for Russian Thistle plant response rating / Plant response rating, Russian Thistle: preemergence; for Plant response rating, Russian Thistle: 62 g ai/ha, scale 0 to 100, 0 = no effect, 100 = complete control
From the text: Seeds of plant species selected from blackgrass (Alopecurus myosuroides), ryegrass, Italian (Italian ryegrass, Lolium multiflorum), wheat (winter wheat, Triticum aestivum), galium (catchweed bedstraw, Galium aparine), corn (Zea mays), crabgrass, large (large crabgrass, Digitaria sanguinalis), foxtail, giant (giant foxtail, Setaria faberii), johnsongrass (Sorghum halepense), lambsquarters (Chenopodium album), morningglory (Ipomoea coccinea), nutsedge, yellow (yellow nutsedge, Cyperus esculentus), pigweed (redroot pigweed, Amaranthus retroflexus), ragweed (common ragweed, Ambrosia elation), soybean (Glycine max), barnyardgrass (Echinochloa crus-galli), oilseed rape (Brassica napus), waterhemp (common waterhemp, Amaranthus rudis), oat, wild (wild oat, Avena fatua), kochia (Kochia scoparia), Surinam grass (Brachiaria decumbens), foxtail, green (green foxtail, Setaria viridis), goosegrass (Eleusine indica), bromegrass, downy (downy bromegrass, Bromus tectorum), nightshade (eastern black nightshade, Solanum ptycanthum), cocklebur (common cocklebur, Xanthium strumarium), cupgrass, woolly (woolly cupgrass, Eriochloa villosa), bermudagrass (Cynodon dactylon), sunflower, (common oilseed sunflower, Helianthus annuus), Russian thistle (Salsola kali), and velvetleaf (Abutilon theophrasti) were planted into a blend of loam soil and sand and treated preemergence with test chemicals formulated in a non-phytotoxic solvent mixture which included a surfactant.
At the same time, plants selected from these crop and weed species and also chickweed (common chickweed, Stellaria media), canarygrass (littleseed canarygrass, Phalaris minor), and deadnettle (henbit deadnettle, Lamium amplexicaule), were planted in pots containing Redi-Earth® planting medium (Scotts Company, 14111 Scottslawn Road, Marysville, Ohio 43041) comprising spaghnum peat moss, vermiculite, wetting agent and starter nutrients and treated with postemergence applications of test chemicals formulated in the same manner. Plants ranged in height from 2 to 18 cm (1- to 4-leaf stage) for postemergence treatments. Treated plants and controls were maintained in a greenhouse for 13 to 15 days, after which time all species were compared to controls and visually evaluated. Plant response ratings, summarized in Table C, are based on a scale of 0 to 100 where 0 is no effect and 100 is complete control. A dash (-) response means no test result.

[2] = 31 g ai/ha, scale 0 to 100 (0 no effect, 100 complete control), 13 to 15 days
[3] = 125 g ai/ha, scale 0 to 100, 0 is no effect, 100 is complete control

| SMILES | Plant response rating, Arrowleaf Sida (arrowleaf sida; Postemergence, 16 g ai/ha) | Plant response rating, Arrowleaf Sida (arrowleaf sida; Postemergence, 31 g ai/ha) | Plant response rating, Arrowleaf Sida (arrowleaf sida; Postemergence, 125 g ai/ha) | Plant response rating, Barnyardgrass (barnyardgrass; Postemergence, 16 g ai/ha) | Plant response rating, Barnyardgrass (barnyardgrass; Postemergence, 31 g ai/ha) | Plant response rating, Barnyardgrass (barnyardgrass; Postemergence, 125 g ai/ha) | Plant response rating, Wild Poinsettia (wild poinsettia; Postemergence, 16 g ai/ha) | Plant response rating, Wild Poinsettia (wild poinsettia; Postemergence, 31 g ai/ha) | Plant response rating, Wild Poinsettia (wild poinsettia; Postemergence, 125 g ai/ha) | Plant response rating (scale of 0 to 100), Russian Thistle (Russian thistle) | Russian Thistle plant response rating (Russian thistle; [2]) | Plant response rating, Russian Thistle (Russian thistle; 13 to 15 days) | Russian Thistle plant response rating (Russian thistle; [3]) | also measured |
| --- | --- | --- | --- | --- | --- | --- | --- | --- | --- | --- | --- | --- | --- | --- |
| CCc1cc(-c2ccc(C(F)(F)F)cc2)nn1Cc1ccnc(C(F)(F)F)c1 [Compound 110] | 75 | 85 | 85 | 20 | 20 | 50 | 70 | 75 | 95 | – | – | – | – | Plant response rating, Smartweed (smartweed; postemergence, 62 g ai/ha): 50; Plant response rating, Arrowleaf Sida (arrowleaf sida; postemergence, 62 g ai/ha): 40 and 75; Plant response rating, Arrowleaf Sida (arrowleaf sida; postemergence, 8 g ai/ha): 60; Plant response rating, Barnyardgrass (barnyardgrass; postemergence, 8 g ai/ha): 10; Plant response rating, Wild Poinsettia (wild poinsettia; postemergence, 62 g ai/ha): 60 and 80; Plant response rating, Wild Poinsettia (wild poinsettia; postemergence, 8 g ai/ha): 70; Plant response rating, Waterhemp_RES1 ([1]; Postemergence, 16 g ai/ha): 90; Plant response rating, Waterhemp_RES1 ([1]; Postemergence, 31 g ai/ha): 98; Plant response rating, Waterhemp_RES1 ([1]; Postemergence, 125 g ai/ha): 100; Plant response rating, Waterhemp_RES1 ([1]; postemergence, 62 g ai/ha): 90; Plant response rating, Waterhemp_RES1 ([1]; postemergence, 8 g ai/ha): 85 |
| CCc1cc(C(=O)NCC(F)(F)F)nn1Cc1ccnc(Br)c1 [Compound 224] | – | – | – | – | – | – | – | – | – | – | – | – | – | Plant response rating, Cocklebur (cocklebur; 62 g ai/ha): 0; Plant response rating, Cocklebur (cocklebur; 125 g ai/ha): 0 |
| CCCNC(=O)c1cc(CC)n(Cc2nc(C(F)(F)F)nn2C)n1 [Compound 109] | 30 | 30 | 50 | 0 | 0 | 30 | 40 | 50 | 70 | – | – | – | – | Plant response rating, Smartweed (smartweed; Postemergence, 16 g ai/ha): 20; Plant response rating, Smartweed (smartweed; Postemergence, 31 g ai/ha): 50; Plant response rating, Smartweed (smartweed; Postemergence, 125 g ai/ha): 70; Plant response rating, Smartweed (smartweed; Postemergence, 250 g ai/ha): 80; Plant response rating, Arrowleaf Sida (arrowleaf sida; Postemergence, 250 g ai/ha): 60; Plant response rating, Barnyardgrass (barnyardgrass; Postemergence, 250 g ai/ha): 50 |
| CCc1cc(C(=O)NOC(C)C)nn1Cc1cccc(OC(F)(F)F)c1 [Compound 70] | – | – | – | – | – | – | – | – | – | 80 | 65 | 75 | 75 | – |
| CCONC(=O)c1cc(CC)n(Cc2cccc(OC(F)(F)F)c2)n1 [Compound 72] | – | – | – | – | – | – | – | – | – | 95 | 5 | 90 | 95 | – |

From patent US20150105252A1, “SUBSTITUTED PYRAZOLES AS HERBICIDES” (E I DU PONT DE NEMOURS AND COMPANY, priority 2013, published 2015)
